Results from ChEMBL document CHEMBL2331180, “Synthetic glycolipids for glioma growth inhibition developed from neurostatin and NF115 compound” (2013).
Active and inactive are the calls of the source. The calls are words filed in the database; no cut-off is given here.

Tests used:
C6 = experiment: Antitumor activity against rat C6 cells transplanted to rat assessed as reduction in tumor growth at 8 mg/kg, intra-tumor treated after 1 week of tumor injection measured up to 15 days relative to untreated control; format: functional, organism-based; design: dose 8 mg/kg
[1] = Antiproliferative activity against human […] cells assessed as inhibitory activity measured after 36 hrs by [3H]thymidine incorporation assay; format: functional; details: read-out: ID50 (the source's name)
[2] = Antiproliferative activity against human […] cells assessed as Human Bcl-x beta gene repression at IC50 concentration after 24 hrs by microarray analysis relative to control; format: functional
[3] = Antiproliferative activity against human […] cells assessed as Tumor protein p53 gene repression at IC50 concentration after 24 hrs by microarray analysis relative to control; format: functional
[4] = Antiproliferative activity against human […] cells assessed as Human epsilon 14-3-3 protein gene repression at IC50 concentration after 24 hrs by microarray analysis relative to control; format: functional
[5] = Antiproliferative activity against human […] cells assessed as Solute carrier family 4, anion exchanger, member 2 (erythrocyte membrane protein band 3-like 1) gene repression at IC50 concentration after 24 hrs by microarray analysis relative to control; format: functional
[6] = Antiproliferative activity against human […] cells assessed as Rho GDP dissociation inhibitor (GDI) alpha gene repression at IC50 concentration after 24 hrs by microarray analysis relative to control; format: functional

| SMILES | Activity (C6) | IC50 [1] | fold change (FC) [2] | fold change (FC) [3] | fold change (FC) [4] | fold change (FC) [5] | fold change (FC) [6] |
| --- | --- | --- | --- | --- | --- | --- | --- |
| CCCCCCCCCCCCCCCCO[C@H]1O[C@H](COCC(CO)(CO)COS(=O)(=O)O)[C@@H](O)[C@H](O)[C@H]1NC(=O)CCCC | Active | 3.2 µM | – | – | – | – | – |
| CCCCCCCCO[C@H]1O[C@H](COCC(CO)(CO)CO)[C@@H](O)[C@H](O)[C@H]1NC(C)=O | – | 180 µM | 0.3 | 0.5 | 0.5 | 0.7 | 0.3 |
| CCCCCCCCCCCCCCCCO[C@H]1O[C@H](CO)[C@@H](O)[C@H](O)[C@H]1NC(C)=O | inactive | 13 µM | – | – | – | – | – |
| CCCCCCCCCCCCCCCCO[C@H]1O[C@H](COCC(O)CO)[C@@H](O)[C@H](O)[C@H]1NC(=O)CCCC (some centres not stated) | inactive | 4.6 µM | – | – | – | – | – |
